Results as given in ChEMBL document CHEMBL1201862, “PubChem BioAssay data set” (2004).
Activity calls are given as the source filed them.

How the values were obtained:
[1] = molecular target: T1, NADPH oxidase 1 (Homo sapiens, UniProt Q9Y5S8); assay: Late-stage luminescence-based cell-based dose response assay to identify inhibitors of NADPH oxidase 1 (NOX1): Purchased analogs 2.; format: functional
T1 sequence (Q9Y5S8 whole entry): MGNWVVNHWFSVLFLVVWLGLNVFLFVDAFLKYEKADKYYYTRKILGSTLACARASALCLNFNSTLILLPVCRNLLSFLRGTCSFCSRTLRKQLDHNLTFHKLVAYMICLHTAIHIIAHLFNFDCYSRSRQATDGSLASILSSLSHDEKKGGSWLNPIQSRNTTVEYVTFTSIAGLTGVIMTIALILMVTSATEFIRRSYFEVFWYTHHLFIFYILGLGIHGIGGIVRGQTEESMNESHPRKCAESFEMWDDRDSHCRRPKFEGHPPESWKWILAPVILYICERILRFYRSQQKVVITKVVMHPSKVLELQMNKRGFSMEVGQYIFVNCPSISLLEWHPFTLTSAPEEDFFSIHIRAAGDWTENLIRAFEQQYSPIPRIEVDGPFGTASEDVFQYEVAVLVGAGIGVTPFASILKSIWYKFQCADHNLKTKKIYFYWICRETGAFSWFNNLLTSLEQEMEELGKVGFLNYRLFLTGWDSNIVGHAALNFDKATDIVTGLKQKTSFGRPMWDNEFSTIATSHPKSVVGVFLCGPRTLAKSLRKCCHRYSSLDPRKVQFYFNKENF

[2] = molecular target: Solute carrier family 12 member 2/member 5 (Homo sapiens, UniProt P55011+Q9H2X9); assay: KCC2 and NKCC1 inhibition by rubidium flux, cell-based, NKCC1 counter-screen (AID 1734); format: functional, HEK293
[3] = M. tuberculosis H37Rv growth inhibitors, H37Rv strain (AID 1626); format: functional
[4] = molecular target: T2, CAAX prenyl protease 2 (Homo sapiens, UniProt Q9Y256); assay: human Rce1 protease inhibitors, dose response, biochemical, yeast membranes, quenched-peptide fluorescence, cherry-pick (AID 588849)
T2 sequence (Q9Y256 whole entry): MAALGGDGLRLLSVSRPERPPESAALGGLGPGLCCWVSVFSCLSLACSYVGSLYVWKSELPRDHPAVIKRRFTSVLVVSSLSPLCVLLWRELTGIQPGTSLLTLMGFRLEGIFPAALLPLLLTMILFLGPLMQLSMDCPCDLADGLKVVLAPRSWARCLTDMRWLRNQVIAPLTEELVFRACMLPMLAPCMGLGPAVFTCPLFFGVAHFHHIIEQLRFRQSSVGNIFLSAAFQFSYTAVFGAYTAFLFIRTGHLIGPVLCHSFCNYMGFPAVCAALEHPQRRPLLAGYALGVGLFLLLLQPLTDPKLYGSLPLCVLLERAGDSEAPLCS

[5] = molecular target: Trypsin (Sus scrofa, UniProt P00761); assay: porcine trypsin inhibitors, dose response, selectivity assay for Rce1 protease inhibitor project, biochemical, quenched peptide fluorescence, cherry-pick (AID 488789)
[6] = molecular target: T3, CAAX prenyl protease 2 (Saccharomyces cerevisiae S288c, UniProt Q03530); format: biochemical
T3 sequence (Q03530 whole entry): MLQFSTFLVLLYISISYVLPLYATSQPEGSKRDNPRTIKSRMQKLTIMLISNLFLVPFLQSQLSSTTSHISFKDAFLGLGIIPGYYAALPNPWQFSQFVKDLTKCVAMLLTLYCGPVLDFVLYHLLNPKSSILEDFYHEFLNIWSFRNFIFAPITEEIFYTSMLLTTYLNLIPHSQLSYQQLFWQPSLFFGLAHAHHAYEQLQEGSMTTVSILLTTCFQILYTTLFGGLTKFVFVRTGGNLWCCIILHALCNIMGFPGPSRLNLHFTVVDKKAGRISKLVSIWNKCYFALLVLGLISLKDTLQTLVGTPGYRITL

[7] = molecular target: Kallikrein-7 (Homo sapiens, UniProt P49862); assay: Fluorescence Intensity-based biochemical primary high throughput dose response assay to identify activators of kallikrein-7 (K7) zymogen.
[8] = molecular target: Protein Tat (Human immunodeficiency virus type 1 group M subtype B (isolate HXB2)(HIV-1), UniProt P04608); format: functional;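 further: tat binding to TAR RNA read out by fluorescence polarization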
[9] = C. albicans growth with fluconazole, confirmation, fluorescence, retest (AID 2467); format: functional, cell-based
[10] = NIH-3T3 fibroblast cytotoxicity, dose response, cytotoxicity control, cell-based, fluorescence, Alamar Blue, secondary assay (AID 2327); format: functional;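 further: NIH-3T3 mouse fibroblasts cultured with fluconazole at 8 µg/mL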
[11] = molecular target: E3 ubiquitin-protein ligase UHRF1 (Homo sapiens, UniProt Q96T88); assay: Counterscreen for inhibitors of 5-meCpG-binding domain protein 2 (MBD2): TRFRET-based biochemical high throughput dose response assay to identify inhibitors of binding of ubiquitin-like with PHD and ring finger domains 1 (UHRF1) to methylated oligonucleotide.
[12] = molecular target: T4, Mannose-6-phosphate isomerase (Homo sapiens, UniProt P34949); assay: human PMI inhibitors, high substrate, primary screen, biochemical, fluorescence intensity, high mannose 6-phosphate (AID 1220)
T4 sequence (P34949 whole entry): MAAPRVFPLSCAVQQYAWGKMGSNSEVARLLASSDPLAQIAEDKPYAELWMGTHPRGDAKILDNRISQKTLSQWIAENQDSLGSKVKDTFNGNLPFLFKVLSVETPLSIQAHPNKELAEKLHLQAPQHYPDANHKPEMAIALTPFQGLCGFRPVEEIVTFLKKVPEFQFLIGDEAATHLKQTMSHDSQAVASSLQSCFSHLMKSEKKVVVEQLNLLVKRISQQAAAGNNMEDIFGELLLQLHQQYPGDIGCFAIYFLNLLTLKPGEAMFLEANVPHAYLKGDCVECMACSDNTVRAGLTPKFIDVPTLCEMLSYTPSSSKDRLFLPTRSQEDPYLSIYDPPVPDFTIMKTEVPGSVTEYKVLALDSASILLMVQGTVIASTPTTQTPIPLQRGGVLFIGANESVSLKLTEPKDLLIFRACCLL

[13] = molecular target: NAD-dependent protein deacylase sirtuin-5, mitochondrial (Homo sapiens, UniProt Q9NXA8); assay: SIRT5 desuccinylase inhibitors, dose response, biochemical, fluorescence imaging, cherry-pick, set 5 (AID 720591);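 further: desuccinylation of succinyl peptide AMC substrate read as fluorescence after trypsin release; potency of inhibitors that lower fluorescence and may act on trypsin instead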
Sequence of NAD-dependent protein deacylase sirtuin-5, mitochondrial (Q9NXA8 whole entry): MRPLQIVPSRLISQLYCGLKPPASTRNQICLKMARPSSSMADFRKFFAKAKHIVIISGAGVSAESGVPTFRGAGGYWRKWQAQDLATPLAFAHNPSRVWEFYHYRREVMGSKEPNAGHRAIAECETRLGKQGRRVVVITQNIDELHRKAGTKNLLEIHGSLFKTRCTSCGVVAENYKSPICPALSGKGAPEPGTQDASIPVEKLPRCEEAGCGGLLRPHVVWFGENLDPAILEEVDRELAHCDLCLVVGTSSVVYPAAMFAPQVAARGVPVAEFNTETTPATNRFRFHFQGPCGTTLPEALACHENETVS

Sequence of Trypsin (P00761 whole entry): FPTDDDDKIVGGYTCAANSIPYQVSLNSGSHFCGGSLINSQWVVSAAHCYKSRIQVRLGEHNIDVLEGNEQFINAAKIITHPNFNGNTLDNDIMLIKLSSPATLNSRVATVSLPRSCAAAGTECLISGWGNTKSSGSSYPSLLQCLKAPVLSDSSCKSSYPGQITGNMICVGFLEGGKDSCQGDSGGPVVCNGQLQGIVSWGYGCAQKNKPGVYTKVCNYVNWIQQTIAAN
Sequence of Kallikrein-7 (P49862 whole entry): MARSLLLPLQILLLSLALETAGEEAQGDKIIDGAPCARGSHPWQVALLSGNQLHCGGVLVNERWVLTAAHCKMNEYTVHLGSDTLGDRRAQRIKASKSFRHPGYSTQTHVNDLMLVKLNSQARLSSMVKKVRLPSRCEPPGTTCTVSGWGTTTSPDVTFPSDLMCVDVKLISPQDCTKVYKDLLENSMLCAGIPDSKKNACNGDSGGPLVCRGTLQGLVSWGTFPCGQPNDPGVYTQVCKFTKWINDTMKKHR
Sequence of Protein Tat (P04608 whole entry): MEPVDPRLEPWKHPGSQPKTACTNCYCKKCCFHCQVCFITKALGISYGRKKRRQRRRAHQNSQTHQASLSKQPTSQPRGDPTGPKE
Sequence of E3 ubiquitin-protein ligase UHRF1 (Q96T88 whole entry, the tested form may be a part): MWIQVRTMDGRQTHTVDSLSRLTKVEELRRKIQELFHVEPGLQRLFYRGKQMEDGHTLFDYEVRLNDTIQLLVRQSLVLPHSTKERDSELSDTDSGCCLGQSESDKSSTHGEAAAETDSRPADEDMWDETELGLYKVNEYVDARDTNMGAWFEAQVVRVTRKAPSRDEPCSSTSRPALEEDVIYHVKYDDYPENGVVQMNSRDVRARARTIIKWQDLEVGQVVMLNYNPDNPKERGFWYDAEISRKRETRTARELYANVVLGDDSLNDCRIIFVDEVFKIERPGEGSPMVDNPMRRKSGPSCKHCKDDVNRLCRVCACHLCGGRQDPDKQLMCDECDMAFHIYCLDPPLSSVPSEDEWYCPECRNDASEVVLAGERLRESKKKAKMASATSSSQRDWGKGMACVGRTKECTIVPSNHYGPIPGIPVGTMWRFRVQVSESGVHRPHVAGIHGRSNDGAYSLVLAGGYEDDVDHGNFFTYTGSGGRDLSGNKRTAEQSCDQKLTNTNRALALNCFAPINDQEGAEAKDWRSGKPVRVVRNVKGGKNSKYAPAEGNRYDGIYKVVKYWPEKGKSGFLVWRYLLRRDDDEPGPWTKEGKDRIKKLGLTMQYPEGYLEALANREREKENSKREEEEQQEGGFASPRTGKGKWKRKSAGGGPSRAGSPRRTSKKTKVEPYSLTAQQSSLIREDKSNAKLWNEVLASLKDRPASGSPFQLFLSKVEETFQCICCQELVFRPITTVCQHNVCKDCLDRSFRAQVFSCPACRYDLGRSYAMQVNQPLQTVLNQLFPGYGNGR

Compound: C=C(NNc1c(F)c(F)nc(F)c1F)c1ccc(OC)cc1
- IC50 [1]: > 17 µM (not active)

Compound: O=C(OCC(=O)N1CCN(C(=O)c2ccco2)CC1)c1sc2ccccc2c1Cl
- IC50 [2]: 24 µM (active)
- IC50 [3]: > 100 µM (active)

Compound: Cc1oc2c(CN3CCCC3)c(O)ccc2c(=O)c1-c1ccc(Br)cc1
- AC50 [4]: 10 µM (active)
- AC50 [5]: 9.06 µM (active)
- AC50 [6]: 12 µM (active)
- EC50 [7]: > 69.5 µM (inactive)

Compound: O=C(NCCN1CCN(c2ccccc2)CC1)C1CCN(S(=O)(=O)c2cccc3nonc23)CC1
- IC50 [8]: > 100 µM (active)

Compound: Cc1ccc(-c2cc(-c3ccccc3)cc(-c3ccccc3)[n+]2-c2ccccc2C(=O)O)cc1.[O-][Cl+3]([O-])([O-])[O-]
- EC50 [9]: 3.23 µM (inconclusive)
- EC50 [10]: > 160 µM (inactive)
- IC50 [11]: 18.9 µM (inactive)

Compound: COc1cc2c(C#N)c(N3CCCCC3)nc(N)c2c(N)n1
- AC50 [4]: 20 µM (active)
- AC50 [5]: 13.6 µM (active)
- IC50 [12]: > 50 µM (not active)

Compound: CC1=Nc2cc(C(=O)O)ccc2Sc2ccc(Br)cc21
- AC50 [13]: 18.8 µM (active)
